In PubChem BioAssay AID1902 (Broad Institute, 2009):
pEC50: −log10 of the molar value. Calls of active or inactive are those of the source.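 Rule for the calls: active = EC50 no more than a set limit of log units above the highest dose; inactive = the rest.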

molecular target: S. pyogenes SKKanGAS, kanamycin survival, BacTiterGlo, 6 h; assay: SKKanGAS survival reduction under kanamycin, dose response, streptokinase promoter inhibitor project, SKKanGAS strain, luminescence, dose confirmation (AID 1902);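 note: lower survival reflects blocked streptokinase promoter driving kanamycin resistance gene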

SMILES	pEC50	EC50
COCCn1c(SCc2nc3sc(C(=O)OC)c(C)c3c(=O)[nH]2)nc2ccccc21	5.45	
N#Cc1nc(-c2ccccc2Cl)oc1N1CCN(C(=O)c2ccco2)CC1		> 15000 nM (inactive)
CC1(C)COCN1S(=O)(=O)c1ccc(C(=O)Nc2nnc(-c3ccc(Cl)s3)o2)cc1	6.34	
Nc1c(S(=O)(=O)c2ccccc2)c2nc3ccccc3nc2n1/N=C/c1cccc(O)c1	5.28	
C/C(=N/Nc1nc(-c2ccccc2F)nc2ccccc12)c1ccccc1O	5.08	
N=C1S/C(=C\c2ccc(-c3cccc(Cl)c3)o2)C(=O)N1c1nccs1	> 7.22	
CC(=O)Nc1ccc(C2C(=O)c3ccccc3C2=O)cc1		> 15000 nM (inactive)
Cc1ccc(-c2[nH]nc(N)c2N=Nc2ccccc2C)cc1	5.97	
CCOC(=O)c1sc(=S)n2c1[nH]c(=O)c1ccc(C(=O)OC)cc12	5.42	
C/C(=N\NC(=O)c1ccc(-c2ccccc2)cc1)C1C(=O)c2ccccc2C1=O	5.96	
COc1ccc(C(=O)NC(=S)NNC(=O)c2ccccc2C)cc1	5.83	
CC(C)(O)c1ccccc1CC[C@@H](SCC1(CC(=O)O)CC1)c1cccc(/C=C/c2ccc3ccc(Cl)cc3n2)c1	5.84	
CN(C)c1ccc(O)c2c1CC1CC3C(N(C)C)C(=O)C(C(N)=O)=C(O)[C@@]3(O)C(=O)C1=C2O (stereo not given in full)	7.02	
S=C(NCCC(c1ccccc1)c1ccccc1)Nc1cccc(Cl)c1	5.24	
COc1ccc(NS(=O)(=O)c2ccc3ccccc3c2)c2ncccc12	5.92	
COc1ccc(C(=O)c2c(C(F)(F)F)oc3c2C(=O)c2ccccc2C3=O)cc1OC	6.13	
COc1ccc(-c2c(C#N)c(N)nc3sc(C(=O)c4ccccc4)c(N)c23)cc1	5.23	
O=C(NNC(=O)c1cc(-c2ccccc2)nc2ccccc12)Nc1cccc(Cl)c1	5.41	
Nc1nonc1C(=O)NCCN=Cc1cc(Cc2ccccc2)cc(Br)c1O	5.30	
CC(/C=C/c1ccc(N(C)C)cc1)=N/N=C1/NC(=O)CC(C(=O)Nc2ccc(Cl)cc2)S1 (stereo not given)	5.62	
CSc1cccc(NC(=O)OC2CCCCCCCCCCC2)c1	5.39	
CCOC(=O)C1CCN(C(=O)c2ccc3c(=O)n4nc(Nc5cc(C)ccc5C)sc4nc3c2)CC1	5.09	
C/C(=N\NC(=O)c1ccc(C)cc1)c1c(C)[nH]n(-c2ccccc2)c1=O	5.67	
CCCCN(CCCC)c1nc(-c2ccncc2)nc2ccccc12	5.37	
CCCSc1nsc(NC(=O)Nc2ccc(F)cc2F)n1	5.25	

SMILES	pEC50	EC50
COc1ccc(-c2cc(-c3ccc(C)cc3)n[nH]2)c(O)c1	5.56	
CN1CCN(C(c2ccc(C(F)(F)F)cc2)c2cc(Cl)c3cccnc3c2O)CC1 (stereo not given)	6.17	
COc1cccc2c1C(=O)c1c(O)c3c(c(O)c1C2=O)C[C@@](O)(C(=O)CO)C[C@@H]3O[C@H]1C[C@H](N)[C@H](O)[C@H](C)O1	5.94	
NCCS(=O)(=O)NC1CCCCC1		> 15000 nM (inactive)
CC(C)(C)c1cc(NCc2ccccn2)n2ncc(-c3ccc(Cl)cc3)c2n1	5.87	
O=C(O)CSCC(=O)N(Cc1ccccc1)c1nc(-c2ccccc2)c(-c2ccccc2)s1	5.80	
Cc1cccc(Nc2nc(N)nc(CN3CCN(c4ccc(F)cc4)CC3)n2)c1	4.81	
Nc1c(C(=O)OCc2ccccc2)c2nc3ccccc3nc2n1Cc1cccs1	5.30	
O=C(Nc1nccs1)c1sc2ccccc2c1Cl		> 15000 nM (inactive)
Cc1cc(C)c(C(=O)Nc2ccc(Br)c(C(F)(F)F)c2)c(C)c1	5.55	
Cc1cccc(C(=O)NNC(=O)c2c(O)c3ccccc3n(C)c2=O)c1	5.16	
O=C(Nc1ccccc1N1CCCC1)c1ccc2c(c1)OCO2		> 15000 nM (inactive)
Cc1ccccc1NC(=O)NCCCCc1ccccc1		> 15000 nM (inactive)
CNC1=C(N(C(C)=O)c2ccc(Br)cc2)C(=O)c2ccccc2C1=O	5.20	
O=C(Nc1cccc(NC(=O)c2cccnc2)c1)c1ccccc1		> 15000 nM (inactive)
C=CCNC(=S)N/N=C(\C)c1ccccn1	5.75	
C#C[C@]1(O)CC[C@H]2[C@@H]3CCc4cc(OC5CCCC5)ccc4[C@H]3CC[C@@]21C	5.58	
CCOC(=O)c1cnn(-c2nc(-c3ccccc3F)cs2)c1C(F)(F)F	4.96	
O=C(NC(=S)N1CCN(c2nc(-c3ccccc3)cs2)CC1)c1cccnc1	5.39	
CC(C)(C)Nc1nc(-c2ccccn2)nc2ccccc12	6.67	
O=C(NNc1ccccc1Br)C(O)(c1cccc(C(F)(F)F)c1)c1cccc(C(F)(F)F)c1	5.59	
COc1ccc(C(=O)NNC(=S)NC(=O)c2ccco2)cc1	5.64	
CCN(CC)c1ccc(NC(=O)c2c(C)noc2C)cc1		> 15000 nM (inactive)
O=C(NC(=S)N1CCN(C(c2ccccc2)c2ccccc2)CC1)c1ccc(S(=O)(=O)N2CCOCC2)cc1	5.59	
C=C(C)COc1ccc(-c2[nH]ncc2Oc2cccc(OC)c2)c(O)c1	5.23	

SMILES	pEC50	EC50
Cc1ccc(S(=O)(=O)CNC(=S)c2ccc3ccccc3c2)cc1	5.38	
Cc1cccc(NC2=Nc3ccccc3N3C2=Nc2c(c(C)nn2-c2ccccc2)C3c2ccc(O)c(O)c2)c1 (stereo not given)	5.34	
Cc1nc2c(C(=O)NCc3ccc4c(c3)OCO4)cnn2c(C)c1Cc1ccc(F)cc1Cl	4.83	
O=C(/C=C/c1ccccc1Cl)c1ccccc(=O)c1O	6.08	
O=[N+]([O-])c1ccc(O)c(/C=N/Nc2ncnc3c2cnn3-c2ccccc2)c1	6.13	
COc1c(N2CCN(C(=S)NC3CC4CCC3C4)C(C)C2)c(F)cc2c(=O)c(C(=O)O)cn(C3CC3)c12 (stereo not given)	5.51	
CC(=O)NC(c1ccc(C)cc1)c1cc(Cl)c2cccnc2c1O (stereo not given)	5.85	
COc1ccc(OC)c2[nH]c(C(=O)N/N=C/c3ccccc3O)cc12	5.78	
CC(C)C(=O)NC(c1cccs1)c1cc([N+](=O)[O-])c2cccnc2c1O (stereo not given)	5.84	
COc1ccc(-c2coc3c(C)c4oc(=O)c(CCC(=O)O)c(C)c4cc23)cc1	5.67	
NC(=S)N/N=C/c1ccc(C23CC4CC(CC(C4)C2)C3)cc1	5.41	
O=C1NC(=S)/C(=C\c2ccc(-c3ccccc3Cl)o2)S1	5.53	
CCN(CC)S(=O)(=O)c1cccc(C(=O)Nc2nc3cc4c(cc3s2)OCCO4)c1	6.01	
Cc1nnc(NC(=O)c2ccc(S(=O)(=O)N(C)Cc3ccccc3)cc2)o1	5.33	
O=C(CCc1ccccc1)Nc1nnc(-c2ccc3c(c2)CCCC3)o1	5.80	
Oc1[nH]c2ccccc2c1N=NC(=S)N1CCOCC1	6.56	
CCOc1cccc(N(C(=O)c2ccco2)C(C(=O)NC2CCCC2)c2cccnc2)c1 (stereo not given)		> 15000 nM (inactive)
O=C(O)c1ccc(CSc2nc(-c3ccc(Cl)cc3)cc(C(F)(F)F)n2)cc1	5.57	
Cc1cccc(NC(=S)/N=C(\N)Nc2nc(C)c3ccc(C)cc3n2)c1		> 15000 nM (inactive)
O=C(CSc1nc(N2CCOCC2)nc(N2CCOCC2)n1)Nc1cccc(C(F)(F)F)c1		> 15000 nM (inactive)
c1cn2c(NC3CCCCC3)c(-c3ccc(SC4CCCCC4)cc3)nc2cn1	5.70	
S=c1[nH]nc(-c2cc(-c3ccccc3)n[nH]2)n1/N=C/c1ccc(Cl)cc1	5.06	
FC(F)(F)c1cccc(Nc2nc(N3CCCC3)nc(N3CCCC3)n2)c1	5.65	
CC(C)C[C@H](NC(=O)N1CC(=O)Nc2ccccc21)C(=O)N[C@H](C(=O)O)c1ccccc1		> 15000 nM (inactive)
O=C(O)c1ccc(S(=O)(=O)/N=C2\C=C(Nc3ccccc3F)C(=O)c3ccccc32)cc1	5.51	
